Results published in patent publication US7341749B2, “Flavopereirine and alstonine combinations in the treatment and prevention of prostate cancer” (Natural Source International Ltd., priority 2004, dated 2008).

Test system: LNCaP cells
Assay: Induction of apoptosis (PARP cleavage, Caspase-3 activity)
Type: cell-based, human
Conditions: inferred from the extract experiments

Structure (SMILES) | induction of the apoptosis pathway (mechanism of action of the active compound)
CCc1ccc2c3[nH]c4ccccc4c3cc[n+]2c1 [flavopereirine] | primary mechanism of action
COC(=O)C1=CO[C@@H](C)[C@@H]2Cn3ccc4c5ccccc5nc-4c3C[C@H]12 [alstonine] | relatively minor effect
